# Assay results published in patent US20130090371A1, “METHODS AND COMPOSITIONS FOR INHIBITION OF BETA2-ADRENERGIC RECEPTOR DEGRADATION” (PRESIDENT AND FELLOWS OF HARVARD COLLEGE, priority 2010, published 2013).
# d = 2'-deoxy (DNA); r = 2'-OH (RNA)
# Legend:
# β2AR [1] = assay: Immunoblot of exogenously expressed β2AR in 293β2AR cells; format: cell-based, human; settings: at a higher concentration; three days
# Source text: Three repeats were done with similar results.
# β2AR [2] = assay: Immunoblot of β2AR protein in human airway smooth muscle (HASM) cells
# Protocol: Error bars represented the standard deviations; Student t-test * p<0.05, n=2. […] Indirect Immunofluorescence staining of β2AR and phase contract images are shown.
# Three days after the inhibitor treatment cell lysates were collected and analyzed by immunoblotting. Three repeats were done with similar results.
# Immunoblot analysis. 48 h post DNA transfection, cells were wash with PBS and lysed with NP-40 lysing buffer (50 mM Tris-HCl pH7.5, 150 mM NaCl, 0.5% Nonidet P-40) containing protease inhibitor cocktail (Roche). Protein samples were separated on NuPAGE 10% Bis-Tris gels (Invitrogen) and transferred to nitrocellulose membranes (Bio-Rad). Immunoblot signals were developed using SuperSignal West Pico Chemiluminescent Substrate (Pierce, Rockford, Ill., USA) and quantified by a Luminescence Imager or exposed to X-ray films.
# latrophilin 2 = assay: Quantitative real-time PCR of latrophilin 2 expression; format: cell-based, human; settings: vs NT siRNA
# Source text: FIG. 11A-11C show inhibition of an EST RNA (AA496068) increases latrophilin 2 expression and decreases β2-AR degradation. FIG. 11A show the genomic locus that is targeted by AA496068 EST shRNA (SEQ ID NO: 2). The shRNA corresponds to sequences in an EST AA496068, which is about 150 kb upstream of the latrophilin 2 gene, and binding of this shRNA […] (SEQ ID NO: 2) activates latrophilin 2 and decreases β2-AR degradation. Thus SEQ ID NO: 2 serves as an activator or agonist of lactrophinin 2. The whole region covering the EST and latrophilin 2 is also annotated as KIAA0786. […] Cells were then labeled with anti-FLAG-FITC and analyzed by flow cytometry. FIG. 11B are histograms showing the distribution of cells treated with vehicle (upper panel) or ISO (lower panel) are shown above. […] Total RNA was isolated from cells transfected with NT or AA496068 EST siRNAs. Latrophilin 2 and AA496068 EST expression was determined by reverse transcription using random hexamers followed by quantitative real-time PCR.
# β2AR [3] = assay: qRT-PCR of β2AR mRNA in HASM cells; format: cell-based, human; settings: AAEST siRNA
# surface β2-AR = assay: Surface β2-AR by FACS (α-Flag FITC) after AAEST siRNA; format: cell-based, human; settings: text: HASM cells; legend FIG. 16A: HEK293 cells
# β2AR [4] = assay: Baseline β2AR expression in cells after AAEST knockdown; format: cell-based
# β2ARt [5] = biological target: T1, β2ARt (Homo sapiens, UniProt P07550); assay: Immunoblot of agonist-induced β2AR degradation in 293β2AR* / β2ARt cells; format: cell-based
# T1 construct: a distally truncated form (after residue 385) of β2AR (β2ARt); expressed in transfected cells; host or cells: HEK293 (293.β2AR*)
# Protocol: (§1) β2AR ubiquitination and degradation assays. Cells expressing […] or β2ARt were subjected to 10 μM ISO (Sigma) stimulation, lysed in 0.5% NP-40 lysis buffer and immunoblotted with anti-FLAG-HRP (Sigma). For β2AR ubiquitination, β2ARt or wt-β2AR expressing cells were first incubated with 10 μM alprenolol antagonist (Sigma) for 15 min (to reduce constitutive background ubiquitination), stimulated with 10 μM ISO and lysed in buffer supplemented with 10 mM N-ethylmaleimide (NEM; Sigma) to inhibit deubiquitinase activity. Anti-FLAG EZview beads (Sigma) used for the IP were subjected to three 10 min washes with lysis buffer and resuspended in 50 μl 2βLDS sample buffer (Invitrogen) containing 10% β-mercaptoethanol (Sigma) and analyzed by immunoblotting.
# wild-type β2AR [6] = biological target: T2, wild-type β2AR (Homo sapiens, UniProt P07550); assay: Immunoblot of agonist-induced degradation of wild-type β2AR; format: cell-based; settings: siRNA-transfected cells
# T2 construct: expressed in transfected cells; host or cells: HEK293 (293.β2AR^WT)
# Protocol: β2AR ubiquitination and degradation assays. Cells expressing PAR or β2ARt were subjected to 10 μM ISO (Sigma) stimulation, lysed in 0.5% NP-40 lysis buffer and immunoblotted with anti-FLAG-HRP (Sigma). For β2AR ubiquitination, β2ARt or wt-β2AR expressing cells were first incubated with 10 μM alprenolol antagonist (Sigma) for 15 min (to reduce constitutive background ubiquitination), stimulated with 10 μM ISO and lysed in buffer supplemented with 10 mM N-ethylmaleimide (NEM; Sigma) to inhibit deubiquitinase activity. Anti-FLAG EZview beads (Sigma) used for the IP were subjected to three 10 min washes with lysis buffer and resuspended in 50 μl 2βLDS sample buffer (Invitrogen) containing 10% β-mercaptoethanol (Sigma) and analyzed by immunoblotting.
# β2ARt [7] = biological target: T1, β2ARt; assay: β2AR ubiquitination assay, β2ARt cells; format: cell-based; settings: ISO stimulation
# Protocol: as §1
# ARRDC3 = ARRDC3 protein knockdown by siRNA; format: cell-based, human
# NEDD4/β2AR = biological target: T3, NEDD4/β2AR (Homo sapiens, UniProt P07550); assay: IP assay of NEDD4/β2AR association in β2ARt-expressing cells; format: cell-based; settings: presence or absence of ISO stimulation
# T3 construct: a distally truncated form (after residue 385) of β2AR (β2ARt); expressed in transfected cells; host or cells: HEK293 cells stably expressing FLAG-β2ARt
# Protocol: FIGS. 10A-10B show ARRDC3 is an essential adaptor for β2AR ubiquitination. […] Cells stably expressing FLAG-β2ARt were transfected with siRNAs targeting nothing (scrambled), ARRDC3, or β-arrestin-2 and then subjected to a treatment with vehicle or ISO. Anti-FLAG immunoprecipitates from the corresponding lysates and whole cell extracts (WCE) were analyzed by immunoblotting with the indicated antibodies. FIG. 10B is a schematic model of ARRDC3 functioning as an adaptor for β2AR ubiquitination.
# Co-immunoprecipitations (co-IP). 293T cells were transfected using Fugene 6 (Roche) or Turbofect (Fermentas). 48 h later, cells were lysed, pre-cleared with protein A agarose, and HA- or FLAG-tagged proteins were IP-ed using anti-HA EZview or anti-FLAG EZview beads. Washed beads were resuspended in sample buffer and analyzed by immunoblotting. Where noted, cross-linking was achieved by incubation for 40 min with 2 mM crosslinker dithio-bismaleimidoethane (DTME; Pierce) in PBS containing 10 mM Hepes (pH 7.5), as previously described (Shenoy et al, 2008) with minor modifications. IP complexes were washed three times consecutively in lysis, high salt, and low salt buffers then resuspended in sample buffer before immunoblotting.
# wild-type β2AR [8] = biological target: T2, wild-type β2AR; assay: β2AR ubiquitination assay, wild-type β2AR cells; format: cell-based; settings: ISO stimulation
# Protocol: as §1
compound,measurement,setting,value
O=C(O)c1ccc2c3c1cccc3c(=O)n1c3ccccc3nc21 [STO-609],β2AR protein level,β2AR [1],increased exogenously expressed β2AR protein
same,β2AR protein level,"β2AR [2]; at as low as 2 μM, three days",an increase in β2AR
"AA496068 EST siRNAs: siRNA having the sequence UAAUAUUUAAUGAGGCGGCCU (SEQ ID NO: 27) (listed as RNA, chemistry not given here)",latrophilin 2 expression,latrophilin 2,increases the expression of latrophilin 2
"AAEST siRNA: 5′ UAAUAUUUAAUGAGGCGGCCUdTdT (SEQ ID NO: 34) and/or 5′ AGGCCGCCUCAUUAAAUAUUAdTdT (SEQ ID NO: 35) (chain 1 UAAUAUUUAAUGAGGCGGCCUTT; chain 2 AGGCCGCCUCAUUAAAUAUUATT; sugars from the 5' end r21 d2, backbone not given here)",mRNA expression level of β2-adrenergic receptor,β2AR [3],did not decrease the mRNA expression level
same,presence of β2-AR on the cell surface,surface β2-AR,decreases the presence of β2-AR on the surface
same,total β2-AR protein expression,"β2AR [2]; western blot, FIG. 16B",decreased total β2-AR protein expression
same,baseline β2AR expression,β2AR [4],an increase in baseline β2AR expression
ARRDC3 siRNA: siRNA having the sequence GAACUGCUCUUCCCGAAUG (SEQ ID NO: 25) (chemistry not given here),level of un-degraded receptor after ISO vs scrambled control siRNA,β2ARt [5]; ISO-induced degradation of β2ARt,about 6 fold
same,increase in basal level of the receptor,β2ARt [5]; prior to ISO stimulation,< 2 fold
same,ISO-induced degradation of wild-type β2AR,wild-type β2AR [6],blocked
same,reduction in normalized amount of ubiquitinated β2AR compared to ISO-treated control,β2ARt [7],−70%
same,knockdown of ARRDC3 protein expression,ARRDC3,> 75%
same,association of NEDD4 with β2AR,NEDD4/β2AR,completely abrogated
same,reduction in ubiquitinated β2AR compared to ISO-treated control,wild-type β2AR [8],−30%
